Patent US7998903B2, “Glycerol-modified silicone spreading agent and a composition comprising the same” (Shin-Etsu Chemical Co., Ltd., priority 2004, dated 2011)

Legend:
[1] = Degree of solubility (miscibility) of the silicone in oil agents; format: physicochemical; design: key: “D” means “dispersed”; “I” means “insoluble.”; A silicone with no mark means that it dissolved to form a transparent solution
Protocol: (§1) The present invention will be explained in detail with reference to the following Examples, but not limited to them. In the Examples, surface tension was measured with a full automatic tensiometer, model PD-W, ex Kyowa Interface Science Co. Ltd., at 25 degrees C. according to the water drop method in which a contact angle with the air is measured. A surface tension of dimethylpolysiloxane having a viscosity of 30 mm^2/s at 25 degrees C. measured according to this method was 18.2 mN/m. In the tables shown below, “D” and “I” each represents a degree of solubility: “D” means “dispersed” and “I” means “insoluble.” A silicone with no mark means that it dissolved to form a transparent solution.
(§2) Some properties and solubility in oil agents were determined with each of the glycerol-modified silicone prepared in Examples 1 to 5. Surface tension of the mixtures of the silicone and the oil agent were measured, too.

[2] = Surface tension of silicone/oil agent mixtures, automatic tensiometer, 25 degrees C.; format: physicochemical; settings: for Surface Tension, glycerol-modified silicone/oil agent = 10/90, Liquid paraffin / Surface Tension, glycerol-modified silicone/oil agent = 10/90, Rapeseed oil / Surface Tension, glycerol-modified silicone/oil agent = 10/90, Soybean oil: 25 C.; for Surface Tension, glycerol-modified silicone/oil agent = 10/90, Liquid paraffin: silicone/liquid paraffin = 10/90, neat liquid paraffin 27.9; for Surface Tension, glycerol-modified silicone/oil agent = 10/90, Rapeseed oil: silicone/rapeseed oil = 10/90, neat rapeseed oil 31; for Surface Tension, glycerol-modified silicone/oil agent = 10/90, Soybean oil: silicone/soybean oil = 10/90, neat soybean oil 31.8; for Surface tension, amount added 1 wt % / Surface tension, amount added 5 wt % / Surface tension, amount added 10 wt % / Surface tension, amount added 15 wt %: Table 5, oil agent not named; for Surface tension, amount added 1 wt %: 1 wt % silicone; for Surface tension, amount added 5 wt %: 5 wt % silicone; for Surface tension, amount added 10 wt %: 10 wt % silicone; for Surface tension, amount added 15 wt %: 15 wt % silicone
Protocol: as §1, §2
Silicones modified with compounds other than glycerol were prepared. Mixtures with the oil agents were prepared and surface tension thereof was measured as in Examples.
Compositions were prepared containing an oil agent and the glycerol-modified silicone in a weight ratio of 90/10 and surface tension thereof was measured.
Silicones without having a glycerol residue and silicones having a structure other than, A-B-A, were prepared and subjected to the measurements as in Examples. Mixtures with the oil agents were prepared each of which surface tension was measured as in Examples.

[3] = test system: leaf of Citrus Natsudaidai; experiment: Spreading of one drop of liquid paraffin containing silicone on a leaf (FIGS. 1 & 2); settings: 15 μl drop of liquid paraffin containing 10 wt % silicone; 5 minutes after placing
Protocol: FIGS. 1 & 2 are photographs each taken 5 minutes after one drop, i.e., 15 μl, of liquid paraffin containing 10 wt % of the silicone of Example 2 and Comparative Example 6, respectively, was placed on a leaf of Citrus Natsudaidai. […] Comparing the figures, the liquid paraffin containing the glycerol-modified silicone in Example 2 has better spreading property than the silicone modified with n-octene.

Surface Tension, glycerol-modified silicone/oil agent = 10/90, Liquid paraffin [2] [mN/m]	Surface Tension, glycerol-modified silicone/oil agent = 10/90, Rapeseed oil [2] [mN/m]	Surface Tension, glycerol-modified silicone/oil agent = 10/90, Soybean oil [2] [mN/m]	Surface tension, amount added 1 wt % [2] [mN/m]	Surface tension, amount added 5 wt % [2] [mN/m]	Surface tension, amount added 10 wt % [2] [mN/m]	Surface tension, amount added 15 wt % [2] [mN/m]	Compound	other results
							C[Si](C)(CCCOCC(O)CO)O[Si](C)(C)CCCOCC(O)CO (stereo not shown) [Comparative Example 1]	Miscibility, glycerol-modified silicone/oil agent = 10/90, Liquid paraffin ([1]; silicone/liquid paraffin = 10/90): (I); Miscibility, glycerol-modified silicone/oil agent = 10/90, Rapeseed oil ([1]; silicone/rapeseed oil = 10/90): (I); Miscibility, glycerol-modified silicone/oil agent = 10/90, Soybean oil ([1]; silicone/soybean oil = 10/90): (I)
25.5	24.5	24.9	27.4	25.3	25.5	24.4	CCCCCCCC[Si](C)(O[Si](C)(C)C)O[Si](C)(C)C [Comparative Example 6]	spreading of a drop on a leaf [3]: remained as a small circle
21.3	22.6	21.9					C[Si](C)(C)O[Si](C)(C)CCCOCC(O)CO (stereo not shown) [Example 1]	
26.3							CCCCCCCCCCCC[Si](C)(O[Si](C)(C)C)O[Si](C)(C)C [compound 7]	
25							CCCCCCCC[Si](C)(C)O[Si](C)(C)O[Si](C)(C)C [compound 8]	
25.4			26.6	25	25.4	22.7	C[Si](C)(C)O[Si](C)(CCCCCO)O[Si](C)(C)C [compound 10]	
23.7	24.9	24.3	27	24.4	23.7	23.7	CC(CCO)C[Si](C)(O[Si](C)(C)C)O[Si](C)(C)C (stereo not shown) [compound 11]	
23	26.9	27.5					CCC(CO)(CO)COCCC[Si](C)(C)O[Si](C)(C)C [compound 14]	
22.1	25.3	26					CCC(CO)(CO)COCCC[Si](C)(O[Si](C)(C)C)O[Si](C)(C)C [compound 15]	
